Reference: patent US20050171116A1, “Enhancing the efficacy of tubercular drugs” (priority 2004, published 2005)

Experiments:
Format in all cases: cell-based, Mycobacterium Tuberculosis
Details in all cases: LJ medium, in vitro
[1] = tested on: Rifampicin-resistant strains of MTB
[2] = tested on: Isoniazid-Resistant strains of MTB
[3] = tested on: Multi-Drug-Resistant strains of MTB

Measured: antibacterial efficacy

Cc1c(C)c2c(c(C)c1O)CC[C@@](C)(CCC[C@H](C)CCC[C@H](C)CCCC(C)C)O2 [Factor Alpha tx, α-tocopherol]
effective: all assays above
